Laboratory results from paper PMC10999543, “Identification of kinase modulators as host-directed therapeutics against intracellular methicillin-resistant Staphylococcus aureus” (Frontiers in Cellular and Infection Microbiology, 2024).
Like-named read-outs stand apart in the source and are kept apart here.

How the values were obtained:
[1] = test system: HER4; parameters: method as in Elkins et al., 2016; details: PKIS1, Caliper assay, ref Elkins et al., 2016; cited from earlier work
[2] = test system: EGFR; parameters: method as in Elkins et al., 2016; details: PKIS1, Caliper assay, ref Elkins et al., 2016; cited from earlier work
[3] = test system: HeLa cells; assay: Compound screen by flow cytometry: HeLa cell count as surrogate readout of cell viability (z-scoreHeLa); format: cell-based, human
In short: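 HeLa cells were infected with GFP-MRSA (mean MOI 6.8 ± 4.6) for 1 h, and extracellular bacteria were killed with 30 µg/ml gentamicin. Cells were then incubated overnight with kinase inhibitors in 5 µg/ml gentamicin, in triplicate against DMSO controls. Flow-cytometric cell count served as a viability surrogate, expressed as a plate z-score.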

[4] = test system: HER2; parameters: method as in Elkins et al., 2016; details: PKIS1, Caliper assay, ref Elkins et al., 2016; cited from earlier work
[5] = test system: intracellular MRSA; format: cell-based, Staphylococcus aureus; details: for %GFP+ rep 1 / z-scoreMRSA+ rep 1: replicate 1; for %GFP+ rep 2 / z-scoreMRSA+ rep 2: replicate 2; for %GFP+ rep 3 / z-scoreMRSA+ rep 3: replicate 3; for z-scoreMRSA+ mean: mean of 3 replicates
In short: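 HeLa cells infected with GFP-MRSA (MOI ~6.8), gentamicin-cleared, then incubated overnight at 37°C with inhibitors plus 5 µg/ml gentamicin; DMSO as negative control, triplicates. Flow cytometry gave % GFP-positive cells and cell count (viability surrogate); hits by plate z-score (MRSA ≤ -2, HeLa count ≥ -3).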

[6] = test system: intracellular MRSA in HeLa cells; assay: Gentamicin protection assay with CFU count in MRSA-infected HeLa cells; format: cell-based, Staphylococcus aureus; details: for CFU (% of DMSO) at 10 µM: MRSA-infected HeLa cells
Protocol: The cells were resuspended in cell culture medium without antibiotics, seeded with 10,000 cells/well into Costar flat-bottom 96-well plates (Corning, Amsterdam, the Netherlands), and were incubated overnight at 37°C/5% CO2. The next day, the bacteria were centrifuged at ≥1800 g for 15 min and resuspended in cold PBS + 5 mM ethylenediaminetetraacetic acid (EDTA). The number of CFUs present in the bacterial suspension was estimated from the optical density at 600 nm (OD600) by assuming 8x10^8 CFUs to be present in a bacterial suspension with OD600 = 1, based on prior titrations. The bacterial suspension was diluted in cell culture medium without antibiotics and added to the cells. Accuracy of the multiplicity of infection (MOI) was validated by plating serial dilutions of the MRSA inoculums on Difco TS agar plates (BD Biosciences). The calculated mean MOI throughout all experiments was 6.8 ± 4.6 (mean ± SD). Infected cells were centrifuged for 3 min at 150 g and incubated for 1 hour at 37°C/5% CO2. Next, the cells were incubated with fresh cell culture medium supplemented with 30 µg/ml gentamicin sulphate (Lonza BioWhittaker, Basel, Switzerland) for 15 min at 37°C/5% CO2 to kill residual extracellular bacteria. Infected cells were incubated overnight at 37°C/5% CO2 in cell culture medium in the presence of kinase inhibitors and 5 µg/ml gentamicin sulphate-containing medium to prevent the growth of extracellular bacteria. The solvent of the compounds, DMSO, was used at equal % v/v as a negative control. For the screen, each compound was tested in triplicate, on separate cell culture plates, resulting in triplicate values for each kinase inhibitor.
Infected cells were lysed in sterile water + 0.05% UltraPure SDS solution (Invitrogen, ThermoFisher Scientific) to release intracellular bacteria. Bacterial suspensions and lysates of cells infected with MRSA were 5-fold serially diluted and 10-μl drops were plated on square TS agar plates. The plates were left to dry and incubated overnight at 37°C/5% CO2.

[7] = PKIS compound screen raw data, MRSA-infected HeLa cells
[8] = PKIS compound screen, MRSA-infected HeLa cells
[9] = PKIS compound screen, Yes/No call (effect without cell death)
[10] = PKIS compound screen, Yes/No call on z-scoreMRSA+
[11] = PKIS compound screen, Yes/No call
[12] = PKIS compound screen, mean of 3 replicates
[13] = PKIS compound screen, replicate 1
[14] = PKIS compound screen, replicate 2
[15] = PKIS compound screen, replicate 3
[16] = PKIS compounds raw data, replicate 1, HeLa cell count
[17] = PKIS compounds raw data, replicate 2, HeLa cell count
[18] = PKIS compounds raw data, replicate 3, HeLa cell count
[19] = PKIS compounds raw data, MRSA-infected HeLa cells
[20] = compound screen, HeLa cell count, mean of 3 replicates
[21] = compound screen, HeLa cell count, replicate 1
[22] = compound screen, HeLa cell count, replicate 2
[23] = compound screen, HeLa cell count, replicate 3
[24] = Yes/No: effect without cell death
[25] = compound screen, MRSA-infected HeLa cells

SMILES	% inhibition at 1 µM HER4 [1] [%]	% inhibition at 1 µM EGFR [2] [%]	% inhibition at 1 µM HER2 [4] [%]	hit [5, 9]	cell death [3, 11]	z-scoreHeLa mean [3, 12]	z-scoreHeLa rep 1 [3, 13]	z-scoreHeLa rep 2 [3, 14]	z-scoreHeLa rep 3 [3, 15]	cell count rep 1 [3, 16]	cell count rep 2 [3, 17]	cell count rep 3 [3, 18]	effect [5, 11]	z-scoreMRSA+ mean ([5]; PKIS compound screen)	z-scoreMRSA+ rep 1 ([5]; PKIS compound screen)	z-scoreMRSA+ rep 2 ([5]; PKIS compound screen)	z-scoreMRSA+ rep 3 ([5]; PKIS compound screen)	%GFP+ rep 1 [5, 19] [%]	%GFP+ rep 2 [5, 19] [%]	%GFP+ rep 3 [5, 19] [%]	also measured
[O-][S+]1CCN(Cc2ccc(-c3ccc4ncnc(Nc5ccc(OCc6cccc(F)c6)c(Cl)c5)c4c3)o2)CC1 [GW576609A]	91	84	80	No																	cell count rep 1 ([3]; PKIS compound screen raw data, HeLa cell count, replicate 1): 27921; cell count rep 2 ([3]; PKIS compound screen raw data, HeLa cell count, replicate 2): 36007; cell count rep 3 ([3]; PKIS compound screen raw data, HeLa cell count, replicate 3): 40876; z-scoreHeLa mean ([3]; PKIS compound screen, HeLa cell count, mean of 3 replicates): 0.49; z-scoreHeLa rep 1 ([3]; PKIS compound screen, HeLa cell count, replicate 1): 1.18; z-scoreHeLa rep 2 ([3]; PKIS compound screen, HeLa cell count, replicate 2): 0.23; z-scoreHeLa rep 3 ([3]; PKIS compound screen, HeLa cell count, replicate 3): 0.0554; cell death ([3]; PKIS compound screen, Yes/No call on z-scoreHeLa): No; %GFP+ rep 1 [5, 7]: 13.3%; %GFP+ rep 2 [5, 7]: 14.3%; %GFP+ rep 3 [5, 7]: 14.3%; z-scoreMRSA+ mean [5, 8]: -1.46; z-scoreMRSA+ rep 1 [5, 8]: -1.45; z-scoreMRSA+ rep 2 [5, 8]: -1.27; z-scoreMRSA+ rep 3 [5, 8]: -1.67; effect [5, 10]: No
[O-][S+]1CCN(Cc2ccc(-c3ccc4ncnc(Nc5ccc(OCc6ccccc6)c(Cl)c5)c4c3)o2)CC1 [GW583373A]	84		73	No	No	1.46	1.65	1.30	1.44	8794	7971	7863	No	-1.31	-1.43	-1.26	-1.26	19.7	19.5	20.5	
CCCN(CCS(C)(=O)=O)Cc1ccc(-c2ccc3ncnc(Nc4ccc(OCc5cccc(F)c5)c(Cl)c4)c3c2)o1 [GW621823A]	79	78	82	Yes	No	0.59	0.17	0.58	1.02	4961	5042	9090	Yes	-2.21	-2.10	-1.86	-2.67	6.6	7.9	6.9	CFU (% of DMSO) at 10 µM [6]: 68.4 % of DMSO
[O-][S+]1CCN(Cc2ccc(-c3ccc4ncnc(Nc5ccc(OCc6ccccc6)c(F)c5)c4c3)o2)CC1 [GW576924A]	75	82	91	Yes	No	-0.58	-1.18	-0.60	0.0442	3467	3479	7054	Yes	-2.35	-1.94	-2.43	-2.70	7.1	6.2	6.8	CFU (% of DMSO) at 10 µM [6]: 137.9 % of DMSO; z-score GFP+ ([5]; flow cytometry screen, 10 µM, HeLa cells): -2.36
CNC(=O)CN1CCC(Oc2cc3c(Nc4cccc(Cl)c4F)ncnc3cc2OC)CC1 [sapitinib, reference compound]																					effect on bacterial burden of MRSA-infected HeLa cells ([6]; tested at different concentrations, Figure 4K): unable to reduce the bacterial burden
CS(=O)(=O)CCN(CC#N)Cc1ccc(-c2ccc3ncnc(Nc4ccc(OCc5cccc(F)c5)c(Cl)c4)c3c2)o1 [GW616030X]	74	77	67							2826	3932	5918						7.5	7.4	6.2	cell death ([3]; Yes/No call from z-scoreHeLa): No; z-scoreHeLa mean [3, 20]: -0.84; z-scoreHeLa rep 1 [3, 21]: -1.76; z-scoreHeLa rep 2 [3, 22]: -0.25; z-scoreHeLa rep 3 [3, 23]: -0.50; CFU (% of DMSO) at 10 µM [6]: 50.3 % of DMSO; effect ([5]; Yes/No call from z-scoreMRSA+): Yes; hit [5, 24]: Yes; z-scoreMRSA+ mean [5, 25]: -2.24; z-scoreMRSA+ rep 1 [5, 25]: -1.82; z-scoreMRSA+ rep 2 [5, 25]: -2.03; z-scoreMRSA+ rep 3 [5, 25]: -2.88
Cc1ccc(O)cc1Nc1ccnc2ccc(S(C)(=O)=O)cc12 [GW559768X]				Yes																	cell death [3]: No; cell count rep 1 ([3]; human): 30393; cell count rep 2 ([3]; human): 35205; cell count rep 3 ([3]; human): 44674; z-scoreHeLa mean ([3]; human): 0.77; z-scoreHeLa rep 1 ([3]; human): 1.56; z-scoreHeLa rep 2 ([3]; human): 0.08; z-scoreHeLa rep 3 ([3]; human): 0.66; %GFP+ rep 1 [5, 7]: 8.1%; %GFP+ rep 2 [5, 7]: 10.1%; %GFP+ rep 3 [5, 7]: 9.8%; z-scoreMRSA+ mean [5, 8]: -2.90; z-scoreMRSA+ rep 1 [5, 8]: -3.11; z-scoreMRSA+ rep 2 [5, 8]: -2.53; z-scoreMRSA+ rep 3 [5, 8]: -3.05; effect [5, 10]: Yes
O=S(=O)(CCOCc1ccc(-c2ccc3ncnc(Nc4ccc(OCc5cccc(F)c5)c(Cl)c4)c3c2)o1)c1ccccc1 [GW615311X]	73	85	70							4217	4665	7934						14.3	12.7	13.9	cell death ([3]; Yes/No call from z-scoreHeLa): No; z-scoreHeLa mean [3, 20]: 0.09; z-scoreHeLa rep 1 [3, 21]: -0.51; z-scoreHeLa rep 2 [3, 22]: 0.30; z-scoreHeLa rep 3 [3, 23]: 0.47; effect ([5]; Yes/No call from z-scoreMRSA+): No; hit [5, 24]: No; z-scoreMRSA+ mean [5, 25]: -0.16; z-scoreMRSA+ rep 1 [5, 25]: 0.36; z-scoreMRSA+ rep 2 [5, 25]: -0.27; z-scoreMRSA+ rep 3 [5, 25]: -0.59
c1ccc(Cn2ncc3cc(Nc4ncnc5ccccc45)ccc32)cc1 [GW273749A]				No	No	1.74	1.98	1.42	1.82	9337	8148	8467	No	0.17	-0.11	0.34	0.28	26.5	27.8	28.8	
